The values that follow come from ChEMBL document CHEMBL5233273, “An overview of hydroxypyranone and hydroxypyridinone as privileged scaffolds for novel drug discovery” (Eur J Med Chem, 2021).

Structures are written as SMILES. pEC50, pIC50: −log10 of the molar value. Converted amounts (≈) assume the structure as drawn.

Target in one test: not listed separately
Description: Inhibition of HIV-1 integrase. More on the design: species or system Human immunodeficiency virus 1.
Details: not given
On to `Cc1cc(=O)c(O)c(C(=O)NCc2ccc(F)cc2)o1`, for which the pEC50 is 6.15 and the pIC50 is 6.43.

Another test has as its system Staphylococcus aureus. Description: Antibacterial activity against Staphylococcus aureus.
Details: not given
Type of test: functional.
For the molecule `Cn1cc(O)c(=O)cc1C(=O)Nc1ccccc1`, the MIC was 16 mg/L (≈ 65.5 µM).
On the same count and under the same terms, the figure for `Cn1cc(O)c(=O)cc1C(=O)Nc1cccnc1` is 32 mg/L (≈ 130 µM).

The next test relates to Candida albicans. Description: Antifungal activity against Candida albicans ATCC 90028. Type of test: functional.
Details: not given
The molecule `Cc1cc(=O)c(O)c(CN2CCN(c3ccccc3Cl)CC2)o1` registered an MIC of 64 mg/L (≈ 191 µM).
Same read-out and setting: for `Cc1cc(=O)c(O)c(CN2CCN(c3ccccc3)CC2)o1` the value was 64 mg/L (≈ 213 µM).
On the same count and under the same terms, the figure for `Cc1cc(=O)c(O)c(CN2CCN(c3ccc(Cl)cc3)CC2)o1` is 64 mg/L (≈ 191 µM); for `Cc1cc(=O)c(O)c(CN2CCN(c3ccc(F)cc3)CC2)o1` it is 64 mg/L (≈ 201 µM).
Still for that read-out and setting: for `CC(=O)c1ccc(N2CCN(Cc3oc(C)cc(=O)c3O)CC2)cc1` the value was 64 mg/L (≈ 187 µM).
`Cc1cc(=O)c(O)c(CN2CCN(Cc3ccccc3)CC2)o1`: the MIC is 64 mg/L (≈ 204 µM).
Same read-out and setting: for `Cc1cc(=O)c(O)c(CN2CCN(c3ccccc3F)CC2)o1` the value was 64 mg/L (≈ 201 µM); for `Cc1cc(=O)c(O)c(CN2CCN(Cc3ccc4c(c3)OCO4)CC2)o1`, 64 mg/L (≈ 179 µM).
On the same count and under the same terms, the figure for `COc1ccccc1N1CCN(Cc2oc(C)cc(=O)c2O)CC1` is 64 mg/L (≈ 194 µM).
The same measure, in the same setting: for `Cc1cc(=O)c(O)c(CN2CCN(c3ccc([N+](=O)[O-])cc3)CC2)o1` the value was 64 mg/L (≈ 185 µM).
Turning to `Cc1cc(=O)c(O)c(CN2CCN(c3cccc(C(F)(F)F)c3)CC2)o1`, the MIC is 64 mg/L (≈ 174 µM).
Same read-out and setting: for `Cc1cc(=O)c(O)c(CN2CCN(c3ccccn3)CC2)o1` the value was 64 mg/L (≈ 212 µM); for `COc1cccc(N2CCN(Cc3oc(C)cc(=O)c3O)CC2)c1`, 64 mg/L (≈ 194 µM).

For the next test, the target named is T1, Tyrosinase (Agaricus bisporus, UniProt O42713).
T1 sequence (O42713 whole entry): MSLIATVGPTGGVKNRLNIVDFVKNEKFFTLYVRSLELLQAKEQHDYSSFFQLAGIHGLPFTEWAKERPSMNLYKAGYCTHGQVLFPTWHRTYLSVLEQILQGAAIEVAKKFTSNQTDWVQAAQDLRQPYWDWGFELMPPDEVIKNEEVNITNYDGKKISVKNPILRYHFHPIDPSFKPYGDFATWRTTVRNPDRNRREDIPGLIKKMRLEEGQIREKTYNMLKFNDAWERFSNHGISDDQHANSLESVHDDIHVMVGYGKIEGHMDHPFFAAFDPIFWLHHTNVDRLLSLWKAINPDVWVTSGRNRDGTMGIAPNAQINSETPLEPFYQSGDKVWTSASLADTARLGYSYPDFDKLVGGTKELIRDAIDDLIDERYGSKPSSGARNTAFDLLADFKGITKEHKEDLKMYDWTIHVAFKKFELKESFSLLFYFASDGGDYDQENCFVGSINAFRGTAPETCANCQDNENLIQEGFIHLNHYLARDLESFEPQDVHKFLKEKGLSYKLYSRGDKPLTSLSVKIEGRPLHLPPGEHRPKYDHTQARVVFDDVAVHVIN
The experiment in a line: Inhibition of mushroom tyrosinase.
Details: not given
`COc1cc(OCc2cn(Cc3cc(=O)c(O)co3)nn2)cc(OC)c1OC` showed a pIC50 of 7.22.
The same measure, in the same setting: the figure for `O=c1cc(Cn2cc(COc3ccc(F)cc3)nn2)occ1O` is 7.22; for `O=c1cc(Cn2cc(COc3ccc([N+](=O)[O-])cc3)nn2)occ1O` it is 7.22.
Same read-out and setting: for `O=c1cc(Cn2cc(COc3cccc(F)c3)nn2)occ1O` the value was 7.22.
Same read-out and setting: the figure for `O=C(OCc1cc(=O)c(O)co1)c1ccc2c(c1)OCCO2` is 5.82; for `O=C(/C=C/c1ccc2c(c1)OCCO2)OCc1cc(=O)c(O)co1` it is 5.82; for `O=c1cc(Cn2cc(COc3cccc(Cl)c3)nn2)occ1O` it is 7.22.
The molecule `O=c1cc(Cn2cc(COc3ccc(Br)cc3)nn2)occ1O` had a pIC50 of 7.22.
For the molecule `O=c1cc(Cn2cc(COc3ccc(Cl)cc3)nn2)occ1O`, the pIC50 is 7.22.
Still for that read-out and setting: the figure for `O=c1cc(Cn2cc(COc3ccccc3)nn2)occ1O` is 7.22.
Same read-out and setting: the figure for `O=C(OCc1cc(=O)c(O)co1)c1ccc2c(c1)OCO2` is 5.82; for `COc1ccc(OCc2cn(Cc3cc(=O)c(O)co3)nn2)cc1` it is 7.22.
On the same count and under the same terms, for `CC(=O)Nc1ccc(OCc2cn(Cc3cc(=O)c(O)co3)nn2)cc1` the value was 7.22; for `COc1cc(OC)cc(OCc2cn(Cc3cc(=O)c(O)co3)nn2)c1`, 7.22.
The molecule `O=c1cc(CSc2ccc(O)cc2)occ1O` had a pIC50 of 6.27.
Same read-out and setting: the figure for `O=c1cc(Cn2cc(COc3ccc(CO)cc3)nn2)occ1O` is 7.22; for `O=c1cc(Cn2cc(COc3ccc(Cl)cc3Cl)nn2)occ1O` it is 7.22; for `N#Cc1ccc(OCc2cn(Cc3cc(=O)c(O)co3)nn2)cc1` it is 7.22.
On the same count and under the same terms, the figure for `Nn1c(SCc2cc(=O)c(O)co2)nnc1-c1ccc(Cl)cc1` is 5.35.

System in another test: not listed separately
The experiment in a line: Neuroprotective activity in CGC cells assessed as inhibition of lipid peroxidation. The format is functional, cell-based. The following applies: cerebellar granule neurone.
With `Cc1c(O)c(=O)ccn1CCSc1cc(C(C)(C)C)c(O)c(C(C)(C)C)c1`, the pIC50 was 6.40.
The same measure, in the same setting: for `Cc1c(O)c(=O)ccn1CCc1cc(C(C)(C)C)c(O)c(C(C)(C)C)c1` the value was 6.52.

A further test has as its system Staphylococcus aureus. The experiment in a line: Antibacterial activity against Staphylococcus aureus assessed as zone of inhibition. Type of test: functional.
Details: not given
For `O=C(/C=C/c1ccc(C(=O)OCc2cc(=O)c(O)co2)cc1)c1ccc(Br)cc1`, the “inhibition zone (IZ)” value was found to be 8 mm.
Same read-out and setting: the figure for `O=C(/C=C/c1ccc(C(=O)OCc2cc(=O)c(O)co2)cc1)c1ccccc1` is 8 mm.

In general, pEC50 refers to −log10 of the EC50, conventionally taken in molar units. A word on the pIC50: it is the negative decadic logarithm of the IC50, by convention in mol/L. By MIC is commonly meant the smallest concentration in the dilution series that meets the test's criterion for growth inhibition. A lower MIC goes with greater potency.
